Laboratory results: ChEMBL document CHEMBL1124380, “Synthesis and cytostatic activity of geiparvarin analogues” (1989)
In brackets after ≈: the same amount, converted by molar mass.

What was measured:
Type in all cases: functional
[1] = test system: CCRF-CEM; assay: Ability to inhibit human CEM tumor cell proliferation by 50%; conditions: read-out: ID50 (the source's name)
[2] = test system: L1210; assay: Ability to inhibit murine L1210 tumor cell proliferation by 50%; conditions: Mus musculus, read-out: ID50 (the source's name)
[3] = Ability to inhibit human Molt/4F tumor cell proliferation by 50%; conditions: read-out: ID50 (the source's name)
[4] = test system: MT4; assay: Ability to inhibit human MT-4 tumor cell proliferation by 50%; conditions: read-out: ID50 (the source's name)
[5] = test system: FM3A; assay: Ability to inhibit murine FM3A tumor cell proliferation by 50%; conditions: Mus musculus, read-out: ID50 (the source's name)
[6] = test system: Raji; assay: Ability to inhibit human Raji tumor cell proliferation by 50%; conditions: read-out: ID50 (the source's name)
[7] = test system: H9; assay: Ability to inhibit human H9 tumor cell proliferation by 50%; conditions: read-out: ID50 (the source's name)

Row | SMILES | IC50 [1] | IC50 [2] | IC50 [6] | IC50 [3] | IC50 [4] | IC50 [5] | IC50 [7]
1 | COc1ccccc1C1=CC(=O)C(C)(C)O1 | 66.1 µg/mL (≈ 303 µM) | 40.4 µg/mL (≈ 185 µM) | 89.1 µg/mL (≈ 408 µM) | 53.3 µg/mL (≈ 244 µM) | 30.4 µg/mL (≈ 139 µM) | 31.7 µg/mL (≈ 145 µM) | 63.9 µg/mL (≈ 293 µM)
2 | COc1ccccc1C1=CC(=O)CO1 | > 100 µg/mL | > 100 µg/mL | > 100 µg/mL | > 100 µg/mL | 44.4 µg/mL (≈ 233 µM) | > 100 µg/mL | 66.3 µg/mL (≈ 349 µM)
3 | C/C(=C\COc1ccc2ccc(=O)oc2c1)C1=CC(=O)C(C)(C)O1 [GEIPARVARIN] | 2 µg/mL (≈ 6.13 µM) | 2.07 µg/mL (≈ 6.34 µM) | 2.19 µg/mL (≈ 6.71 µM) | 2.84 µg/mL (≈ 8.7 µM) | 0.32 µg/mL (≈ 0.981 µM) | 3.2 µg/mL (≈ 9.81 µM) | 1.97 µg/mL (≈ 6.04 µM)
4 | CCC1(C)OC(/C(C)=C/COc2ccc3ccc(=O)oc3c2)=CC1=O (centres undefined) | 2.49 µg/mL (≈ 7.32 µM) | 2.05 µg/mL (≈ 6.02 µM) | 2.59 µg/mL (≈ 7.61 µM) | 3.02 µg/mL (≈ 8.87 µM) | 0.53 µg/mL (≈ 1.56 µM) | 2.96 µg/mL (≈ 8.7 µM) | 2.15 µg/mL (≈ 6.32 µM)
5 | CC1(C)OC(c2ccccc2)=CC1=N | > 100 µg/mL | 66.4 µg/mL (≈ 355 µM) | > 100 µg/mL | > 100 µg/mL | 76.2 µg/mL (≈ 407 µM) | 24.7 µg/mL (≈ 132 µM) | > 100 µg/mL
6 | C/C(=C\COc1ccc2ccc(=O)oc2c1)C1=CC(=N)C(C)(C)O1 | 18.8 µg/mL (≈ 57.8 µM) | 18.4 µg/mL (≈ 56.6 µM) | 26 µg/mL (≈ 79.9 µM) | 25.8 µg/mL (≈ 79.3 µM) | 8.77 µg/mL (≈ 27 µM) | 20.7 µg/mL (≈ 63.6 µM) | 21.7 µg/mL (≈ 66.7 µM)
7 | CCC1OC(/C(C)=C/COc2ccc3ccc(=O)oc3c2)=CC1=O (centres undefined) | 3.27 µg/mL (≈ 10 µM) | 9.77 µg/mL (≈ 29.9 µM) | 2.43 µg/mL (≈ 7.45 µM) | 2.84 µg/mL (≈ 8.7 µM) | 1.63 µg/mL (≈ 4.99 µM) | 17.2 µg/mL (≈ 52.7 µM) | 4.1 µg/mL (≈ 12.6 µM)
8 | C/C(=C\CO)CC1=CC(=O)C(C)(C)O1 | 10.3 µg/mL (≈ 52.5 µM) | 15.8 µg/mL (≈ 80.5 µM) | 16.6 µg/mL (≈ 84.6 µM) | 15.2 µg/mL (≈ 77.5 µM) | 3.05 µg/mL (≈ 15.5 µM) | 23.3 µg/mL (≈ 119 µM) | 9.13 µg/mL (≈ 46.5 µM)

Second part, led by results:

Row | IC50 [1] | IC50 [2] | IC50 [6] | SMILES | IC50 [3] | IC50 [4] | IC50 [5] | IC50 [7]
9 | 3.57 µg/mL (≈ 10.5 µM) | 4.71 µg/mL (≈ 13.9 µM) | 17.9 µg/mL (≈ 52.7 µM) | CCC1(C)OC(/C(C)=C/COc2ccc3ccc(=O)oc3c2)=CC1=N (centres undefined) | 3.17 µg/mL (≈ 9.34 µM) | 2.65 µg/mL (≈ 7.81 µM) | 14.1 µg/mL (≈ 41.5 µM) | 2.58 µg/mL (≈ 7.6 µM)
10 | 2.72 µg/mL (≈ 7.42 µM) | 1.82 µg/mL (≈ 4.97 µM) | 5.43 µg/mL (≈ 14.8 µM) | C/C(=C\COc1ccc2ccc(=O)oc2c1)C1=CC(=O)C2(CCCCC2)O1 | 12.7 µg/mL (≈ 34.7 µM) | 2.1 µg/mL (≈ 5.73 µM) | 6.61 µg/mL (≈ 18 µM) | 2.08 µg/mL (≈ 5.68 µM)
11 | > 100 µg/mL | > 100 µg/mL | > 100 µg/mL | CC(C)CC1=CC(=N)C(C)(C)O1 | > 100 µg/mL | > 100 µg/mL | 33 µg/mL (≈ 197 µM) | > 100 µg/mL
12 | 30.2 µg/mL (≈ 189 µM) | 45.8 µg/mL (≈ 286 µM) | 50.1 µg/mL (≈ 313 µM) | O=C1C=C(c2ccccc2)OC1 | 31.2 µg/mL (≈ 195 µM) | 31.7 µg/mL (≈ 198 µM) | 31.4 µg/mL (≈ 196 µM) | 38.6 µg/mL (≈ 241 µM)
13 | > 100 µg/mL | 98.3 µg/mL (≈ 542 µM) | > 100 µg/mL | CCCCCC1=CC(=N)C(C)(C)O1 | > 100 µg/mL | > 100 µg/mL | 24.2 µg/mL (≈ 133 µM) | > 100 µg/mL
14 | > 100 µg/mL | > 100 µg/mL | > 100 µg/mL | CC(C)CC1=CC(=N)C(C)(C)O1.O=C(O)C(=O)O | > 100 µg/mL | > 100 µg/mL | 33.2 µg/mL | > 100 µg/mL
15 | 29.3 µg/mL (≈ 118 µM) | 24.2 µg/mL (≈ 97.1 µM) | 24 µg/mL (≈ 96.3 µM) | CC1=CC(=N)C(c2ccccc2)(c2ccccc2)O1 | 25.3 µg/mL (≈ 101 µM) | 26.5 µg/mL (≈ 106 µM) | 25.4 µg/mL (≈ 102 µM) | 30 µg/mL (≈ 120 µM)
16 | 3.56 µg/mL (≈ 11.4 µM) | 7.05 µg/mL (≈ 22.6 µM) | 10.4 µg/mL (≈ 33.3 µM) | C/C(=C\COc1ccc2ccc(=O)oc2c1)C1=CC(=O)C(C)O1 (centres undefined) | 3.32 µg/mL (≈ 10.6 µM) | 2.56 µg/mL (≈ 8.2 µM) | 15.6 µg/mL (≈ 49.9 µM) | 2.91 µg/mL (≈ 9.32 µM)
17 | 4.95 µg/mL (≈ 13.5 µM) | 4.05 µg/mL (≈ 11.1 µM) | 23.5 µg/mL (≈ 64.3 µM) | C/C(=C\COc1ccc2ccc(=O)oc2c1)C1=CC(=N)C2(CCCCC2)O1 | 20.5 µg/mL (≈ 56.1 µM) | 4.93 µg/mL (≈ 13.5 µM) | 15.8 µg/mL (≈ 43.2 µM) | 14.2 µg/mL (≈ 38.9 µM)
